The source of these data is patent publication US20160221974A1, “SODIUM CHANNEL MODULATORS FOR THE TREATMENT OF PAIN AND DIABETES” (CHROMOCELL CORPORATION, priority 2013, published 2016).

A value given as a limit tells only on which side of the number the result lay.

For one data set, the target named is T1, hNaV1.7 (Homo sapiens, UniProt Q15858).
T1 construct: expressed in transfected cells
In words: FDSS Membrane Potential In-Vitro Assay. The format is cell-based. The settings on record: stimulation with veratridine and scorpion venom, read-out: NaV1.7 IC50.

Another data set concerns the target T2, NaV1.7 (Homo sapiens, UniProt Q15858).
T2 construct: expressed in transfected cells
In words: Patchliner Electrophysiological In-Vitro Assay (NaV1.7). The format is cell-based. The settings on record: Patchliner patch clamp, HEK293, holding at V1/2. The procedure:
In vitro assays were performed in recombinant cell line that stably express a heterotrimeric protein of interest from an introduced nucleic acid encoding the alpha subunit (hNav1.7, SCN9A), the beta subunit (SCNB1) and the beta subunit (SCNB2). The cell line was engineered using Human Embryonic Kidney 293 cells as host background. Additional cell lines stably expressing recombinant Nav1.7 or Nav1.5 alpha subunit alone or in combination with various beta subunits can also be used in in-vitro assays.
(§1) The recording of sodium current from stable HEK293 cell lines expressing NaV1.7 or NaV1.5 was done on a Patchliner® instrument, Nanion Technologies. The Patchliner® is a fully automated bench-top patch clamp platform and can record simultaneously from up to eight single cells with GΩ seals.
(§2) For patch-clamp experiments, cells were grown under standard culturing conditions in Dulbecco's Modified Eagles medium supplemented with 10% fetal bovine serum, glutamine and HEPES. Cells were harvested and kept in suspension for up to 4 hours with no significant change in quality or ability to patch. Whole cell patch clamp recordings were conducted according to Nanion's standard procedure for the Patchliner®. Experiments were conducted at room temperature.
(§3) Voltage protocols were designed to establish: 1) peak current amplitude (Imax), 2) test potential (Vmax) and 3) half-inactivation potential (V1/2) for each of the eight individual cells. To determine V1/2, a standard steady-state inactivation protocol was executed using a series of fifteen 500 ms depolarizing pre-pulses in 10 mV increments (starting at −130 mV) and immediately followed by a 10 ms test pulse to Vmax. To estimate test compound affinity to the inactivated state of sodium channel (Ki), the holding potential for each cell was set automatically to the V1/2 calculated from a steady-state inactivation data. The current was activated with the following voltage protocol: holding at V1/2 for 2-5 seconds, return to the −120 mV for 5-10 ms to relieve fast inactivation, stepping to test potential (Vmax) for 10-20 ms. This voltage protocol was repeated every 10 seconds to establish the baseline with 2-3 buffer additions followed by the test compound addition. The dose-dependent inhibition was analyzed using Nanion's Data Analysis Package.

A further data set concerns the target T3, CYP3A4 (Homo sapiens, UniProt P08684).
T3 construct: purchased Invitrogen
In words: In-Vitro Cytochrome P450 (CYP450) Inhibition Assay (Vivid CYP450). The format is in vitro ADME. The settings on record: CYP3A4 enzyme complex (Vivid CYP450, Invitrogen), 6 μM test concentration. The procedure: We evaluated interaction of drug candidates with cytochrome P450 enzymes which are a major determinant of drug clearance via oxidative metabolism using a high throughput compatible, fluorescence based CYP450 screening assay (Vivid® CYP450, Invitrogen) according to manufacturer's directions.
In brief, test compounds at four different concentrations (μM—6.0, 2.0, 0.7, 0.2), a positive control (Ketoconazole) and a solvent control were incubated at room temperature in unique wells of a 96-well microtiter plate with CYP3A4 enzyme complex for 20 minutes. A pre-read fluorescence (Ex−485 nm/Em−530 nm) was measured at the start of the incubation using a Tecan Safire^2 microplate reader-monochromator to determine background fluorescence. At the end of the incubation period, enzyme substrate and co-enzyme were added and the reaction was kinetically monitored for 1 hour by measuring fluorescence every minute. Effect of test compounds on inhibition of CYP3A4 metabolism of provided substrate was determined by calculating the ratio of the effective reaction rate in presence of test compound to that in the absence of inhibitor.

Data set [1] concerns Formalin Test (pain behaviors). In words: Formalin Test (pain behaviors). The settings on record: relative to vehicle control; 150 μL of 1 or 2% w/v solution, topical route. The format is in vivo, rat.
The target of the next data set is T4, NaV1.5 (Homo sapiens, UniProt Q14524).
T4 construct: expressed in transfected cells
In words: Patchliner Electrophysiological In-Vitro Assay (NaV1.5). The data set is classed as cell-based. Particulars: Patchliner patch clamp, HEK293. The procedure: as §1, §2, §3
(In general: Patch clamp records ionic current or voltage across a cell membrane.)

Data set [2] concerns Partial Sciatic Nerve Ligation (PSNL) model. In words: Partial Sciatic Nerve Ligation (PSNL) model, behavioral tests. The data set is classed as in vivo, male Sprague-Dawley rats. The settings on record: oral route, relative to vehicle control, measured 30 minutes post dose. The source says: 250-350 g male Sprague-Dawley rats from appropriate animal resources were anesthetized with 2.5% isoflurane. A hind leg was shaved, and the skin was sterilized with 0.5% iodine and 75% alcohol. All surgical instruments were sterilized before surgery and between animals. An incision (1 cm) was made at the middle of the thigh in parallel with the muscle and sciatic nerve distribution. The muscle was exposed and dissected at the joint of two muscles (biceps femoris) indicated by the light colored (white) fascia line. The sciatic nerve was just beneath the muscle and was hooked out using an 18-20 G feeding needle (90 degree curved); the sciatic nerve was flat on the feeding needle and approximately one-half the diameter of the nerve is tightly ligated with 7-0 silk suture. A response of the injured leg twitch indicates the success of ligation. After checking hemostasis, bupivicaine 0.1-0.2 ml (0.125%) was given at the incision area, the muscle and the adjacent fascia are closed with 5-0 absorbable sutures. The skin was sutured with absorbable suture and tissue glue. The control group using sham surgery animals (about 8-10 animals) underwent the same surgical procedure but with no nerve ligation. Animals were returned to their home cage after recovery from anesthesia.
The analgesic effect of the test compound was expressed as a percent recovery (% Recovery) relative to the sham control group baseline and calculated according to the formula:
% Recovery=100%−{[(sham mean−test compound mean)/(sham mean−vehicle mean)]×100%}
wherein “sham mean” refers to average score in the sham-operated group; “test compound mean” refers to average score in the PSNL-group (animals with partial sciatic nerve ligation) or diabetic group (animals treated with STZ) treated with a test compound; “vehicle mean” refers to average score in the PSNL-group or diabetic group treated with vehicle only. The above formula was used to obtain data for the following in vivo behavioral tests.
The following behavioral tests were conducted (i.e., plantar test, paw pressure test, and von Frey test) started on day 3 and thereafter once weekly following surgery or use of a diabetic inducer. […]
Rats were placed on the glass surface of a thermal testing apparatus (Model 336, IITC/Life Science Instruments, Woodland Hills, Calif.) and were allowed to acclimate for 10 min before testing on the glass surface at room temperature. […] The paw withdrawal latency was recorded by a digital timer. The thermal threshold was determined as the mean withdrawal latency from two to three consecutive trials of both hindpaws. […]
Animals were placed under clear plastic boxes above a wire mesh floor, which allowed full access to the paws. […] Mechanical paw withdrawal thresholds (PWTs) were measured with the up-down testing paradigm. […]

T1 sequence (Q15858 whole entry): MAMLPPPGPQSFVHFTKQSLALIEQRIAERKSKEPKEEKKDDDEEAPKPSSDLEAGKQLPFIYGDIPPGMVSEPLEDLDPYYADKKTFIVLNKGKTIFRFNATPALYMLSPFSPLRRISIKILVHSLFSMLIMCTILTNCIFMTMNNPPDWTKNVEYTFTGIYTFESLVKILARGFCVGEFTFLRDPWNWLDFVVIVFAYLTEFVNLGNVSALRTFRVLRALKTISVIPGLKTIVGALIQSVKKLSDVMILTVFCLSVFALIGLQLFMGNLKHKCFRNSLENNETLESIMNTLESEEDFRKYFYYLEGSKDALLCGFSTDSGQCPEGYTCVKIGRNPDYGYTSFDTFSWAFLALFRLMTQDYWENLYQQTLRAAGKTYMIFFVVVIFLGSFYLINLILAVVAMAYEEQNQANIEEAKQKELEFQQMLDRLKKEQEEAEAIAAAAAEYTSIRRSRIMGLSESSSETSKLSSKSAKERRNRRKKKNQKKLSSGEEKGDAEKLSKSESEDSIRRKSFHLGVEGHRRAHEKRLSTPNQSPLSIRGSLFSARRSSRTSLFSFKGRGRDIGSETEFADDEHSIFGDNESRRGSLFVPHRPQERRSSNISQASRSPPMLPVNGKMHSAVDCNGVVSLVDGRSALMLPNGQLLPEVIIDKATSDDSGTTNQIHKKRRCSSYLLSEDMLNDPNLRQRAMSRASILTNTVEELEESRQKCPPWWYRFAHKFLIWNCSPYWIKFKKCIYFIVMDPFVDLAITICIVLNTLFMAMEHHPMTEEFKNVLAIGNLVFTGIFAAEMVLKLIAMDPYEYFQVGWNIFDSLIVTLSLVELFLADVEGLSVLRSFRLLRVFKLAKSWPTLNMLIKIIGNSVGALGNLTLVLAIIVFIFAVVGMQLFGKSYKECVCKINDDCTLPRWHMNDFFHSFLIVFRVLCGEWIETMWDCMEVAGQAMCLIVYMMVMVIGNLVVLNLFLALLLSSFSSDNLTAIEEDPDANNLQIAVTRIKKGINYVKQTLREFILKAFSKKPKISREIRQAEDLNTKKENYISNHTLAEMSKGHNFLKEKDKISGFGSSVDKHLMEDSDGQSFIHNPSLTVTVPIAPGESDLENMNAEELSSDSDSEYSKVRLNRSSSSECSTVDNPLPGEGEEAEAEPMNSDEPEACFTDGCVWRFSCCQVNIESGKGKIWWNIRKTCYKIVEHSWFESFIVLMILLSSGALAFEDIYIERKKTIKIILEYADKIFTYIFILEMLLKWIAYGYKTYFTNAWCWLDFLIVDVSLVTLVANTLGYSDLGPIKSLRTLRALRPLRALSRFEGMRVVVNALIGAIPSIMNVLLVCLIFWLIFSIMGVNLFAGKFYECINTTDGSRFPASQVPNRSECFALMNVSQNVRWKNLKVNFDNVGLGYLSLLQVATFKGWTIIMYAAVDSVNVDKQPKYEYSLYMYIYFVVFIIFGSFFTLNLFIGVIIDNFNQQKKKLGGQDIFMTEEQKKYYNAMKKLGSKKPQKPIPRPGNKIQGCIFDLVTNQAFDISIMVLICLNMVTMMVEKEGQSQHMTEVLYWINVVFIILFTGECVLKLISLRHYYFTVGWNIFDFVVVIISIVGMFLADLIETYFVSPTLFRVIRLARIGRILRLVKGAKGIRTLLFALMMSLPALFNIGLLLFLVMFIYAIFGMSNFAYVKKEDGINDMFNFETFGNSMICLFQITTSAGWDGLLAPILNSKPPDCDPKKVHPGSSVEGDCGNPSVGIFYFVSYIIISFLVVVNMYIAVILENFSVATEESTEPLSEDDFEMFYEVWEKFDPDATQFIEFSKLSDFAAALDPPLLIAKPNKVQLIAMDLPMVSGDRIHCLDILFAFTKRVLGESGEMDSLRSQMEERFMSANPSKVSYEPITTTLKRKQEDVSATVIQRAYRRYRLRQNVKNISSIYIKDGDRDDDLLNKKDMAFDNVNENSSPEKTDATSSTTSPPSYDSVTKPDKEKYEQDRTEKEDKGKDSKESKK
T1 sequence (Q07699 19-218 partner): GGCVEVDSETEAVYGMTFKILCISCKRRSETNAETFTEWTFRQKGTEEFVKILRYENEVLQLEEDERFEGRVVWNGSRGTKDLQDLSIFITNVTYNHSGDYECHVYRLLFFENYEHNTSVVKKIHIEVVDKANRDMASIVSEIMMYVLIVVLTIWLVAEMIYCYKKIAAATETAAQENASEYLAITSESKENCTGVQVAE
T1 sequence (O60939 30-215 partner): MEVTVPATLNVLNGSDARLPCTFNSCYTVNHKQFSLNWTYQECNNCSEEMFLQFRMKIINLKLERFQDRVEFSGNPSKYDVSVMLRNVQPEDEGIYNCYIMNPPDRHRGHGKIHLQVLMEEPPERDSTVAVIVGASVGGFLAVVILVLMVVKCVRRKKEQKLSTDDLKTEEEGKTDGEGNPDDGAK
T2 sequence (Q15858 whole entry): as the sequence (Q15858 whole entry) above
T2 sequence (Q07699 19-218 partner): as the sequence (Q07699 19-218 partner) above
T2 sequence (O60939 30-215 partner): as the sequence (O60939 30-215 partner) above
T3 sequence (P08684 2-503 limits assumed): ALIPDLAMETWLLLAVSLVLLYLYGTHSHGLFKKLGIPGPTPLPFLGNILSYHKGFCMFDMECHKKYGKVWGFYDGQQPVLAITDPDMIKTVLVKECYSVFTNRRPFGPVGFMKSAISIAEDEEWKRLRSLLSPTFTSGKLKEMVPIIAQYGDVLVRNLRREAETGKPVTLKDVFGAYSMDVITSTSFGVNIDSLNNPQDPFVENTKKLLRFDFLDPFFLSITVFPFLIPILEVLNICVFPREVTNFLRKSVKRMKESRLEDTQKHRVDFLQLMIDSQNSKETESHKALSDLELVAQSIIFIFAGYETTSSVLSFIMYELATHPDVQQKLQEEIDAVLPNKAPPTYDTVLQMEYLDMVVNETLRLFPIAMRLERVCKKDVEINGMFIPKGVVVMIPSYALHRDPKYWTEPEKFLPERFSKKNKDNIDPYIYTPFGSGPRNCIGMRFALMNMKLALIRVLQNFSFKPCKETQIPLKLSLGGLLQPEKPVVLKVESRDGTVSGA
T4 sequence (Q14524 whole entry): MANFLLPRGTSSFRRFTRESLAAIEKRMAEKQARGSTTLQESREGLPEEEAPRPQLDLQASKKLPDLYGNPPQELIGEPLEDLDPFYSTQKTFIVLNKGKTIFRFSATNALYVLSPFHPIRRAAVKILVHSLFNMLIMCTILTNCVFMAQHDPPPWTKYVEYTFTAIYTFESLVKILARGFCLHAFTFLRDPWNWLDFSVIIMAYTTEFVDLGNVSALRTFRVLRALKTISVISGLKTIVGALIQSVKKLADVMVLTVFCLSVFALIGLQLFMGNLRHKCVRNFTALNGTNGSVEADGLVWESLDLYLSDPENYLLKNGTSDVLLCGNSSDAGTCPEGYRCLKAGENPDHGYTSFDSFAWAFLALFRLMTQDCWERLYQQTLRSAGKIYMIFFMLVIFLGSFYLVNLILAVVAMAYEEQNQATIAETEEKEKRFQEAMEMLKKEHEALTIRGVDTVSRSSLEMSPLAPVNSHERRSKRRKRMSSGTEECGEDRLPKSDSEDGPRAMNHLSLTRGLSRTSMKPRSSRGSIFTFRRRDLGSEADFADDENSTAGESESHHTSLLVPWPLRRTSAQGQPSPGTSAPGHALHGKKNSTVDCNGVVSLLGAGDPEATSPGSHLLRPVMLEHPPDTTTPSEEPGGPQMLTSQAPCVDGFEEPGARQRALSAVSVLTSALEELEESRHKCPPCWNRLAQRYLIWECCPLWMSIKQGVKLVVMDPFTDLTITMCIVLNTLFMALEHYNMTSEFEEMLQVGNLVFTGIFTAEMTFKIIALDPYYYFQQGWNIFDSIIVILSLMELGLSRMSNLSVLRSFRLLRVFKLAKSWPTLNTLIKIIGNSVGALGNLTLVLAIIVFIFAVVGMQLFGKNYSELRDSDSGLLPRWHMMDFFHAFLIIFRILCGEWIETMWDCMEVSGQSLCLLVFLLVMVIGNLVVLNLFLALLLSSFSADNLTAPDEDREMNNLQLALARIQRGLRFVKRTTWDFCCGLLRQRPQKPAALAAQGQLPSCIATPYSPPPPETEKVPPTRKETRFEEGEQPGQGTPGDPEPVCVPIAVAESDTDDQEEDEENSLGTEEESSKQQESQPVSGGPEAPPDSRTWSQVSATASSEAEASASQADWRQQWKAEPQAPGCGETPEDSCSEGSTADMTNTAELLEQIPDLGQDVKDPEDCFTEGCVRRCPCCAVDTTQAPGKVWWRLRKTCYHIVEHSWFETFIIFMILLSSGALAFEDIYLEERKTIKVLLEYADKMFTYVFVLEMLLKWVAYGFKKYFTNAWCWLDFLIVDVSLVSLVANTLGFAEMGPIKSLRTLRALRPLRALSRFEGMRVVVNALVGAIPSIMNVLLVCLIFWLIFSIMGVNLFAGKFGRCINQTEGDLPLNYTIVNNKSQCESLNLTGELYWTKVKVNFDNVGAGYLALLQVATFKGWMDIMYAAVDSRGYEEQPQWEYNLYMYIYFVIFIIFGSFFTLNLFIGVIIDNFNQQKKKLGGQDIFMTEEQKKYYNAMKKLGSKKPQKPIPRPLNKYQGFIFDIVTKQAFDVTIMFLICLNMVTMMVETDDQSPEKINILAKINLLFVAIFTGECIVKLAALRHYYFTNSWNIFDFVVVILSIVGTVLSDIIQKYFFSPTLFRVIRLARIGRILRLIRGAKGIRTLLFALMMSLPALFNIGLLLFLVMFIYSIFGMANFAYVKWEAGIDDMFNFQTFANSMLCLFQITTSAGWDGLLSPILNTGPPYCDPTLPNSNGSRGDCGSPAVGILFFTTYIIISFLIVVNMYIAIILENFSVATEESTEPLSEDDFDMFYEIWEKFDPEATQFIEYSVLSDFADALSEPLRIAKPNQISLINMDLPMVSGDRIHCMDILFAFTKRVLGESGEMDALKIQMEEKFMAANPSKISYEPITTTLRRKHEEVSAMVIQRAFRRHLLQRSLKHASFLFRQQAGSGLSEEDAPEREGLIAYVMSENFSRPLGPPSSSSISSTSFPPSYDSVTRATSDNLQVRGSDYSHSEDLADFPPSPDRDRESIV

Turning to `O=C(O)CCNCCCc1cc(Cl)ccc1Oc1cc(F)c(S(=O)(=O)Nc2ncns2)cc1Cl` [Compound 12, 3-((3-(2-(4-(N-(1,2,4-thiadiazol-5-yl)sulfamoyl)-2-chloro-5-fluorophenoxy)-5-chlorophenyl)propyl)amino)propanoic acid], the IC50 (as a rule, the concentration needed to halve the response being measured) on hNaV1.7 was less than 0.13 µM. Moreover, the IC50 on NaV1.7 was less than 0.1 µM. Also, on CYP3A4, the inhibition (as a rule, the drop in the measured response relative to a control, in per cent) at 1 hour, 6 µM lay in the range of 50 to 100%. In data set [1], the “reduction in pain response (formalin assay phase 2)” value was 29-43% and the “reduction in pain response (formalin assay, phase 1)” value is on record as 13-24%.

`NC(CCNCCCc1cc(Cl)ccc1Oc1cc(F)c(S(=O)(=O)Nc2cscn2)cc1Cl)C(=O)O` (stereo not shown) [Compound 17, 2-amino-4-((3-(5-chloro-2-(2-chloro-5-fluoro-4-(N-(thiazol-4-yl)sulfamoyl)phenoxy)phenyl)propyl)amino)butanoic acid]: the IC50 lay in the range of 1 to 20 µM at hNaV1.7 and 0.1 to 1 µM at NaV1.7. Further, on CYP3A4, the inhibition at 1 hour, 6 µM fell in the range of 0 to 25%.

On to `O=C(O)CNCCCc1cc(Cl)ccc1Oc1cc(F)c(S(=O)(=O)Nc2nccs2)cc1F` [Compound 18, 2-((3-(5-chloro-2-(2,5-difluoro-4-(N-(thiazol-2-yl)sulfamoyl)phenoxy)phenyl)propyl)amino)acetic acid], for which the IC50 fell in the range of 0.13 to 1 µM at hNaV1.7 and 0.1 to 1 µM on NaV1.7. Further, the inhibition at 1 hour, 6 µM on CYP3A4 is 0 to 25%.

As for `O=C(O)C1CCCN(CCCc2cc(Cl)ccc2Oc2cc(F)c(S(=O)(=O)Nc3cscn3)cc2Cl)C1` (stereo not shown) [Compound 19, 1-(3-(5-chloro-2-(2-chloro-5-fluoro-4-(N-(thiazol-4-yl)sulfamoyl)phenoxy)phenyl)propyl)piperidine-3-carboxylic acid], the IC50 on hNaV1.7 lay within 1 to 20 µM; at NaV1.7, 0.1 to 1 µM. The compound also yielded an inhibition at 1 hour, 6 µM against CYP3A4 of 0 to 25%.

As for `O=C(O)CNCCCc1ccccc1Oc1cc(F)c(S(=O)(=O)Nc2ncns2)cc1Cl` [Compound 20, 2-((3-(2-(4-(N-(1,2,4-thiadiazol-5-yl)sulfamoyl)-2-chloro-5-fluorophenoxy)phenyl)propyl)amino)acetic acid], the IC50 at hNaV1.7 is 0.13 to 1 µM; at NaV1.7, less than 0.1 µM. Besides, the inhibition at 1 hour, 6 µM against CYP3A4 was 50 to 100%.

Take `O=C(O)CNCCCc1cc(Cl)ccc1Oc1cc(F)c(S(=O)(=O)Nc2cscn2)cc1F` [Compound 21, 2-((3-(5-chloro-2-(2,5-difluoro-4-(N-(thiazol-4-yl)sulfamoyl)phenoxy)phenyl)propyl)amino)acetic acid]: the IC50 on hNaV1.7 was 1 to 20 µM; on NaV1.7, 0.1 to 1 µM. Moreover, the inhibition at 1 hour, 6 µM against CYP3A4 lay within 0 to 25%.

As to `O=C(O)CCNCCCc1cc(Cl)ccc1Oc1cc(F)c(S(=O)(=O)Nc2cscn2)cc1F` [Compound 22, 3-((3-(5-chloro-2-(2,5-difluoro-4-(N-(thiazol-4-yl)sulfamoyl)phenoxy)phenyl)propyl)amino)propanoic acid], the IC50 was 1 to 20 µM on hNaV1.7 and 0.1 to 1 µM on NaV1.7. Moreover, the inhibition at 1 hour, 6 µM on CYP3A4 is 0 to 25%.

In the case of `O=C(O)C1CCN(CCCc2cc(Cl)ccc2Oc2cc(F)c(S(=O)(=O)Nc3ncns3)cc2Cl)CC1` [Compound 32, 1-(3-(2-(4-(N-(1,2,4-thiadiazol-5-yl)sulfamoyl)-2-chloro-5-fluorophenoxy)-5-chlorophenyl)propyl)piperidine-4-carboxylic acid], the IC50 on hNaV1.7 was less than 0.13 µM; at NaV1.7, less than 0.1 µM. Further, the inhibition at 1 hour, 6 µM on CYP3A4 lay within 50 to 100%.

For the compound `CS(=O)(=O)CCNCCCc1cc(Cl)ccc1Oc1cc(F)c(S(=O)(=O)Nc2cscn2)cc1Cl` [Compound 44, 5-chloro-4-(4-chloro-2-(3-((2-(methylsulfonyl)ethyl)amino)propyl)phenoxy)-2-fluoro-N-(thiazol-4-yl)benzenesulfonamide], the IC50 on NaV1.7 is less than 0.1 µM; on NaV1.5 it was more than 10 µM.

For the compound `C#CCN(CCCc1cc(Cl)ccc1Oc1cc(F)c(S(=O)(=O)Nc2nccs2)cc1Cl)CC(=O)O` [Compound 54, 2-((3-(5-chloro-2-(2-chloro-5-fluoro-4-(N-(thiazol-2-yl)sulfamoyl)phenoxy)phenyl)propyl)(prop-2-yn-1-yl)amino)acetic acid], the “effect in the tactile allodynia test” value in data set [2] is listed as “no significant effect”.

With `O=S(=O)(Nc1nccs1)c1cc(Cl)c(Oc2ccccc2-c2cnn3c2NCCC3)cc1F` [Compound 56, 5-chloro-2-fluoro-4-(2-(4,5,6,7-tetrahydropyrazolo[1,5-a]pyrimidin-3-yl)phenoxy)-N-(thiazol-2-yl)benzenesulfonamide], the figures for the IC50 on hNaV1.7 and on NaV1.5 were 0.5 to 1 µM and more than 10 µM, respectively.

Regarding `O=S(=O)(Nc1cscn1)c1cc(Cl)c(Oc2ccccc2-c2cnn3c2NCCC3)cc1F` [Compound 58, 5-chloro-2-fluoro-4-(2-(4,5,6,7-tetrahydropyrazolo[1,5-a]pyrimidin-3-yl)phenoxy)-N-(thiazol-4-yl)benzenesulfonamide], the IC50 on hNaV1.7 is 1 to 20 µM; on NaV1.7, 1 to 10 µM; on NaV1.5 it was more than 10 µM.
